Laboratory results as given in PMC5382548 (Scientific Reports, 2015).

Experiments:
[1] = test system: KRAS21R (FRET-labelled) (DNA, G4) AGGGCGGTGTGGGAAGAGGGA; experiment: FRET melting; settings: 60 mM K+; K-cacodylate pH 7.4; 0.2 μM DNA, 1 μM compound; SD ≤ 0.2
KRAS mRNA in SW620 cells = experiment: KRAS mRNA steady-state levels, Taqman real-time RT-PCR, SW620; assay type: cell-based, human; settings: equitoxic (IC50) concentrations, 72 h
Method: The effects of compounds on KRAS transcription in colon cancer cells (HCT116 and SW620) were evaluated by quantifying KRAS mRNA steady-state levels using Taqman real-time RT-PCR.
(a) KRAS mRNA steady-state expression was evaluated by Taqman Real-time RT-PCR using specific Taqman Assays for KRAS and β-Actin for normalization. KRAS mRNA steady-state expression levels were calculated by the ΔΔCt method, using DMSO (vehicle control) for calibration; and (b) KRAS protein steady-state expression evaluated by immunoblot relative to control (DMSO vehicle) Results are expressed as mean ± SEM of at least three independent experiments; *p < 0.05 and §p < 0.01 from DMSO (vehicle control). […]
Taqman Real-time PCR reactions were performed using 1.5 µg of total RNA, using High Capacity RNA to cDNA kit, according to the manufacturer`s instruction. […] The comparative threshold cycle method was used to calculate the amplification factor, where the threshold cycle (Ct) is defined as the cycle number at which the fluorescence passes the fixed threshold intensity level. KRAS expression levels in different samples were calculated on the basis of ΔΔCt method. […]
Hoechst labeling of cells was used to detect apoptotic nuclei by evaluation of nuclear morphology under fluorescence microscopy. […] Fluorescent nuclei were scored and categorized according to the condensation and staining characteristics of […]

[2] = test system: UTR-2 (RNA, G4) UGUGGGAGGGGCGGGUCUGGG; experiment: FRET melting; settings: 60 mM K+; K-cacodylate pH 7.4; 0.2 μM RNA, 1 μM compound; SD ≤ 0.2
KRAS32R G4 = experiment: FRET melting assay, KRAS32R G4; assay type: binding, human; settings: G4 0.2 μM, ligand 1 μM
Method: (§1) Two compounds 2d and 3e were selected and evaluated for their ability to stabilize the 32-mer sequence in the NHE of the human KRAS promoter (KRAS32R)[12], two G4 motifs in the 5′UTR of KRAS mRNA (UTR-1 and UTR-2)[24] and a 21-mer DNA G4 from the human telomeric sequence (F21T). The KRAS32R sequence has been described as forming two G4 structures which exist in equilibrium. One sequence folds into a G4 (Q1) with a Tm of ~55°C that is disrupted on increasing the temperature and then, the full-length 32-mer sequence folds into a new G4 (Q2, Tm of ~72°C)[13]. In our assay, the KRAS32R sequence (in the presence or absence of IQcs) folded in a single G4 structure (Tm ≈ 54°C), as shown by the single inflection for the first derivative of the FRET melting data (Sup. Inf.; Figure S4). This monophasic behaviour was also observed in the presence of TMPyP4[13].
(§2) Oligonucleotide sequences were purchased from Eurofins MWG Synthesis GmbH, Germany or STAB VIDA Genomics Lab, Caparica, Lisbon, Portugal. […]
(§3) The ability of indolo[3,2-c]quinolines to stabilize DNA sequences was investigated using a Fluorescence Resonance Energy Transfer (FRET) assay as reported elsewhere.

[3] = test system: UTR-2 G4 in the 5′UTR of KRAS mRNA; experiment: FRET melting assay, UTR-2 RNA G4; assay type: binding; settings: G4 0.2 μM, ligand 1 μM
Method: as §1, §2, §3

SMILES	binding [1]	Reduction of KRAS mRNA steady-state levels, SW620 (KRAS mRNA in SW620 cells) [%]	ΔTm [2] [°C]	ΔTm KRAS32R (KRAS32R G4) [°C]	ΔTm UTR-2 [3] [°C]
Cn1cc2c3ccccc3nc-2c2cc(Br)ccc21 [2a, 2-bromo-5-methyl-indolo[3,2-c]quinoline]	weak	–	–	–	–
CCN(CC)CCCNc1ccc2c(c1)c1[nH]c3ccccc3c1c[n+]2C [2d]	–	90	2.0	10.7	2.0
CCN(CC)CCCNc1ccc2[nH]c3c(c[n+](C)c4ccc(NCCCN(CC)CC)cc34)c2c1.[Cl-] [3d]	–	25	–	–	–
CCN(CC)CCCNc1ccc2c(c1)[nH]c1c2c[n+](C)c2ccc(NCCCN(CC)CC)cc12.[Cl-] [3e]	yes	–	9.9	17.0	9.9
